In patent publication US9199943B2, “2-(poly-substituted aryl)-6-amino-5-halo-4-pyrimidinecarboxylic acids and their use as herbicides” (Dow AgroSciences, LLC., priority 2006, dated 2015):

Assays:
[1] = test system: HELAN = sunflower (Helainthus annuus); experiment: General postemergence herbicidal activity, sunflower; format: in vivo; conditions: post-emergence, 336 h; post-emergent, 140 g ai/ha, visual score after 14 days (0 no injury, 100 complete kill)
Experimental: Seeds or nutlets of the desired test plant species were planted in Sun Gro MetroMix® 306 planting mixture, which typically has a pH of 6.0 to 6.8 and an organic matter content of about 30 percent, in plastic pots with a surface area of 64 square centimeters. When required to ensure good germination and healthy plants, a fungicide treatment and/or other chemical or physical treatment was applied. The plants were grown for 7-21 days in a greenhouse with an approximate 15 hour photoperiod which was maintained at about 23-29° C. during the day and 22-28° C. during the night. Nutrients and water were added on a regular basis and supplemental lighting was provided with overhead metal halide 1000-Watt lamps as necessary. The plants were employed for testing when they reached the first or second true leaf stage.
A weighed amount, determined by the highest rate to be tested, of each test compound was placed in a 25 mL glass vial and was dissolved in 4 mL of a 97:3 v/v (volume/volume) mixture of acetone and dimethyl sulfoxide (DMSO) to obtain concentrated stock solutions. […] The concentrated stock solutions obtained were diluted with 20 mL of an aqueous mixture containing acetone, water, isopropyl alcohol, DMSO, Atplus 411F crop oil concentrate, and Triton X-155 surfactant in a 48.5:39:10:1.5:1.0:0.02 v/v ratio to obtain spray solutions containing the highest application rates. Additional application rates were obtained by serial dilution of 12 mL of the high rate solution into a solution containing 2 mL of 97:3 v/v (volume/volume) mixture of acetone and dimethyl sulfoxide (DMSO) and 10 mL of an aqueous mixture containing acetone, water, isopropyl alcohol, DMSO, Atplus 411F crop oil concentrate, and Triton X-155 surfactant in a 48.5:39:10:1.5:1.0:0.02 v/v ratio to obtain ½×, ¼×, ⅛× and 1/16× rates of the high rate. Compound requirements are based upon a 12 mL application volume at a rate of 187 L/ha. Formulated compounds were applied to the plant material with an overhead Mandel track sprayer equipped with a 8002E nozzles calibrated to deliver 187 L/ha over an application area of 0.503 square meters at a spray height of 18 inches (43 cm) above the average plant canopy height. Control plants were sprayed in the same manner with the solvent blank.
The treated plants and control plants were placed in a greenhouse as described above and watered by sub-irrigation to prevent wash-off of the test compounds. After 14 days, the condition of the test plants as compared with that of the untreated plants was determined visually and scored on a scale of 0 to 100 percent where 0 corresponds to no injury and 100 corresponds to complete kill.
By applying the well-accepted probit analysis as described by J. Berkson in Journal of the […], 48, 565 (1953) and by D. Finney in “Probit Analysis” Cambridge University Press (1952), the above data can be used to calculate GR50 and GR80 values, which are defined as growth reduction factors that correspond to the effective dose of herbicide required to kill or control 50 percent or 80 percent, respectively, of a target plant.

[2] = test system: CYPDI = Cyperus difformis; experiment: Herbicidal activity in transplanted paddy rice, Cyperus difformis; format: in vivo; conditions: 480 h, water-injected paddy, after 20-22 days; for pest or weed control at 140 g/ha: 140 g ai/ha; for pest or weed control at 70 g/ha: 70 g ai/ha; for pest or weed control at 17.5 g/ha: 17.5 g ai/ha; for pest or weed control at 35 g/ha: 35 g ai/ha
Experimental: Weed seeds or nutlets of the desired test plant species were planted in puddled soil (mud) prepared by mixing a non-sterilized mineral soil (28 percent silt, 18 percent clay, and 54 percent sand, with a pH of about 7.3 to 7.8 and an organic matter content of about 1.0 percent) and water at a ratio of 100 kg of soil to 19 L of water. The prepared mud was dispensed in 250 mL aliquots into 480 mL non-perforated plastic pots with a surface area of 91.6 square centimeters leaving a headspace of 3 centimeters in each pot. Rice seeds were planted in Sun Gro MetroMix® 306 planting mixture, which typically has a pH of 6.0 to 6.8 and an organic matter content of about 30 percent, in plastic plug trays. Seedlings at the second or third leaf stage of growth were transplanted into 650 mL of mud contained in 960 mL non-perforated plastic pots with a surface area of 91.6 square centimeters 4 days prior to herbicide application. The paddy was created by filling the 3 centimeter headspace of the pots with water. When required to ensure good germination and healthy plants, a fungicide treatment and/or other chemical or physical treatment was applied. The plants were grown for 4-14 days in a greenhouse with an approximate 14 hour photoperiod which was maintained at about 29° C. during the day and 26° C. during the night. Nutrients were added as Osmocote (17:6:10, N:P:K+minor nutrients) at 2 g (grams) per cup. Water was added on a regular basis to maintain the paddy flood, and supplemental lighting was provided with overhead metal halide 1000-Watt lamps as necessary. The plants were employed for testing when they reached the second or third true leaf stage. A weighed amount, determined by the highest rate to be tested, of each test compound was placed in a 120 mL glass vial and was dissolved in 20 mL of acetone to obtain concentrated stock solutions. […] The concentrated stock solutions obtained were diluted with 20 mL of an aqueous mixture containing 0.01% Tween 20 (v/v). Application rates of ½×, ¼×, ⅛× and 1/16× of the high rate were obtained by injecting an appropriate amount of the stock solution into the aqueous layer of the paddy. Control plants were treated in the same manner with the solvent blank. The treated plants and control plants were placed in a greenhouse as described above and water was added as needed to maintain a paddy flood. After 20-22 days, the condition of the test plants as compared with that of the untreated plants was determined visually and scored on a scale of 0 to 100 percent where 0 corresponds to no injury and 100 corresponds to complete kill.

Row | Structure (SMILES) | pest or weed control at 140 g/ha [1] | pest or weed control at 140 g/ha [2] | pest or weed control at 70 g/ha [2] | pest or weed control at 17.5 g/ha [2] | pest or weed control at 35 g/ha [2]
1 | COC(=O)c1nc(-c2ccc(Cl)c(OCC(F)F)c2F)nc(N)c1Cl [Compound 10, 6-Amino-5-chloro-2-[4-chloro-3-(2,2-difluoroethoxy)-2-fluorophenyl]-pyrimidine-4-carboxylic acid methyl ester] | 80% | 95% |  |  | 
2 | COC(=O)c1nc(-c2c(F)cc(Cl)c(OC)c2F)nc(N)c1Cl [Compound 2, 6-amino-5-chloro-2-(4-chloro-2,6-difluoro-3-methoxy-phenyl)pyrimidine-4-carboxylic acid methyl ester] | 100% |  | 75% |  | 
3 | COC(=O)c1nc(-c2ccc(Cl)c(OC)c2Cl)nc(N)c1Cl [Compound 6, 6-Amino-5-chloro-2-(2,4-dichloro-3-methoxyphenyl)pyrimidine-4-carboxylic acid methyl ester] | 100% |  |  | 90% | 
4 | CCOc1c(Cl)ccc(-c2nc(N)c(Cl)c(C(=O)OC)n2)c1F [Compound 1, 6-amino-5-chloro-2-(4-chloro-3-ethoxy-2-fluorophenyl)-pyrimidine-4-carboxylic acid methyl ester] | 100% |  |  | 95% | 
5 | COC(=O)c1nc(-c2ccc(Cl)c(C(F)F)c2F)nc(N)c1Cl [Compound 7, 6-Amino-5-chloro-2-(4-chloro-3-difluoromethyl-2-fluorophenyl)pyrimidine-4-carboxylic acid methyl ester] | 100% | 100% |  |  | 
6 | COC(=O)c1nc(-c2ccc(Cl)c(OC)c2F)nc(N)c1Cl [Compound 3, 6-amino-5-chloro-2-(4-chloro-2-fluoro-3-methoxyphenyl)-pyrimidine-4-carboxylic acid methyl ester] | 100% |  |  | 99% | 
7 | COC(=O)c1nc(-c2ccc(Cl)c(OC)c2F)nc(N)c1Br [Compound 13, 6-amino-5-bromo-2-(4-chloro-2-fluoro-3-methoxyphenyl)-pyrimidine-4-carboxylic acid methyl ester] | 100% |  | 85% |  | 
8 | COC(=O)c1nc(-c2ccc(Cl)c(N(C)C)c2F)nc(N)c1Cl [Compound 8, 6-Amino-5-chloro-2-(4-chloro-3-dimethylamino-2-fluorophenyl)pyrimidine-4-carboxylic acid methyl ester] | 100% |  |  |  | 95%
9 | COC(=O)c1nc(-c2ccc3c(c2F)OCO3)nc(N)c1Cl [Compound 9, 6-Amino-5-chloro-2-(4-fluorobenzo[1,3]dioxol-5-yl)pyrimidine-4-carboxylic acid methyl ester] | 100% |  |  |  | 100%
